Results as given in patent US20240317758A1 (Halia Therapeutics, Inc., priority 2021, published 2024).

Legend:
[1] = tested on: IL-1β release; test: IL-1β release assay (THP-1 cells, PMA, LPS, nigericin); format: cell-based; settings: Homo sapiens, LPS 250 ng/mL, nigericin 20 μM, cleaved IL-1β in media
Protocol: Approximately 1.5 million THP-1 cells were plated in each well of a 6-well TC plate and incubated with 40 nM PMA in RPMI (10% FBS, 1% Penstrep) for 24 hours. The media was then removed and cells were rested in RPMI (10% FBS, 1% Penstrep) for 24 hours after which time the media was removed and cells were pre-treated for 2 hours with various concentrations of compounds of interest (typically serial 3-fold dilution in RPMI+5% FBS, concentrations ranging from 1 μM to 0.5 nM) in RPMI (5% FBS). The media was again removed and cells were incubated with 250 ng/mL LPS and compounds of interest (concentrations as above) in RMPI (5% FBS) for 2 hours. The media was removed for a last time and cells were incubated with 20 μM nigericin and compounds of interest (concentrations as above) in Opti-MEM for 30 minutes. Cell media was then collected and the amount of cleaved IL-1β was determined using a JESS instrument (Protein Simple) and standard protocols. Cleaved Il-1β antibody was obtained from Cell Signaling (catalogue #83186S) and was used at 1:20 dilution in antibody diluent 2. Protein Simple 1× anti-Rabbit HRP secondary antibody was used along with Protein Simple luminol and peroxide for chemiluminescent detection. Primary antibody incubation time was increased from 30 minutes to 60 minutes.

[2] = molecular target: T1, full-length recombinant human NEK7 (Homo sapiens, UniProt Q8TDX7); test: NEK7 enzymatic assay; format: biochemical; settings: recombinant human NEK7, casein substrate, radiolabelled ATP
T1 construct: full-length recombinant human NEK7; GST (N); purchased SignalChem NO9-10G; host or cells: Sf9 insect cells (baculovirus)
T1 sequence (Q8TDX7 whole entry): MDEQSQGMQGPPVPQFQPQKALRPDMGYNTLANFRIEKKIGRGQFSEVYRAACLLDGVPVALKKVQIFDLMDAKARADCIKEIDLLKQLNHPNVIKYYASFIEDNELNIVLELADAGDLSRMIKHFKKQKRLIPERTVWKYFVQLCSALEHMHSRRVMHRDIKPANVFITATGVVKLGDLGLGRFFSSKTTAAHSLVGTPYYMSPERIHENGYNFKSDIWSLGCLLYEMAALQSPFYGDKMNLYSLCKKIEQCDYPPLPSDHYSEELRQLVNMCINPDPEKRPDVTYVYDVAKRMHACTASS
Protocol: Casein substrate (from bovine milk, hydrolyzed and partially dephosphorylated mixture of α, β and κ caseins, obtained from Sigma Aldrich, catalogue #C4765, diluted in distilled water to a final concentration of 1 mg/mL) and full-length recombinant human NEK7 (expressed by baculovirus in Sf9 insect cells using a N-terminal GST tag, obtained from SignalChem, catalogue #NO9-10G, 0.1 μg/μL) were mixed in assay buffer (20 mM Hepes pH 7.5, 10 mM MgCl2, 1 mM EGTA, 0.02% Brij35, 0.02 mg/ml BSA, 0.1 mM Na3VO4, 2 mM DTT, 1% DMSO). Compounds of interest (serial 3-fold dilution in DMSO from 10 μM to 0.5 nM) or vehicle (1% DMSO) were dispensed into the kinase reaction mixture by Acoustic technology (Echo550; nanoliter range). After incubation at room temperature for 20 minutes, the kinase reaction was initiated by addition of [^33P]-ATP (specific activity 10 μCi/μl) and the mixture was incubated at room temperature for 2 hours. The reaction was then stopped by spotting the reaction mixture on strips of phosphocellulose P81 paper. Following washing, the radioactivity of the P81 paper was measured and kinase activity data were expressed as the percent remaining kinase activity in test samples compared to vehicle reactions. IC50 values and curve fits were obtained using Prism (GraphPad Software).
Casein substrate (from bovine milk, hydrolyzed and partially dephosphorylated mixture of α, β and κ caseins, obtained from Sigma Aldrich, catalogue #C4765, diluted in distilled water to a final concentration of 1 mg/mL, assay concentration 20 μM) and full-length recombinant human Nek7 (expressed by baculovirus in Sf9 insect cells using a N-terminal GST tag, obtained from SignalChem, catalogue #NO9-10G, 0.1 μg/μL, assay concentration 70 nM) were mixed in assay buffer (20 mM Hepes pH 7.5, 10 mM MgCl2, 1 mM EGTA, 0.02% Brij35, 0.02 mg/ml BSA, 0.1 mM […], 2 mM DTT, 1% DMSO). Compounds of interest (in DMSO, serial 3-fold dilution from 10 μM to 0.5 nM) or control (1% DMSO) were dispensed into the kinase reaction mixture by Acoustic technology (Echo550; nanoliter range). After incubation at room temperature for 20 minutes, the kinase reaction was initiated by addition of [^32P]-ATP (Specific activity 10 μCi/μl) and the mixture was incubated at room temperature for 2 hours. The reaction was then stopped by spotting the reaction mixture on strips of phosphocellulose P81 paper. Following washing, the radioactivity of the P81 paper was measured and kinase activity data were expressed as the percent remaining kinase activity in test samples compared to vehicle (dimethyl sulfoxide) reactions. IC50 values and curve fits were obtained using Prism (GraphPad Software).

| Structure (SMILES) | IC50 [1] | IC50 [2] |
| --- | --- | --- |
| CN1CCC(Oc2ccc(NC(=O)Nc3ccc(-c4cn(C5CC5)c5ncnc(N)c45)cc3F)cc2C(F)(F)F)C(F)C1 (single isomer, unassigned) [Example I-90, 1-(4-(4-amino-7-cyclopropyl-7H-pyrrolo[2,3-d]pyrimidin-5-yl)-2-fluorophenyl)-3-(4-((3-fluoro-1-methylpiperidin-4-yl)oxy)-3-(trifluoromethyl)phenyl)urea] | < 50 nM | < 100 nM |
| CN1CCN(c2ccc(NC(=O)Nc3ccc(-c4cn(C5CC5)c5ncnc(N)c45)cc3F)cc2C(F)(F)F)CC1 [Example I-3] | 250 to 1000 nM | – |
| CC(c1ccc(NC(=O)Nc2ccc(-c3cn(C4CC4)c4ncnc(N)c34)cc2F)cc1C(F)(F)F)N1CCN(C)CC1 (stereo not drawn) [Example I-6, 1-(4-(4-amino-7-cyclopropyl-7H-pyrrolo[2,3-d]pyrimidin-5-yl)-2-fluorophenyl)-3-(4-(1-(4-methylpiperazin-1-yl)ethyl)-3-(trifluoromethyl)phenyl)urea] | > 1000 nM | > 2000 nM |
| CN1CCN(C(=O)c2ccc(NC(=O)Nc3ccc(-c4cn(C5CC5)c5ncnc(N)c45)cc3F)cc2C(F)(F)F)CC1 [Example I-10] | 50 to 250 nM | 100 to 500 nM |
| CN1CCN(Cc2ccc(NC(=O)Nc3ccc(-c4cn(CC(C)(C)O)c5ncnc(N)c45)cc3F)cc2C(F)(F)F)CC1 [Example I-15, 1-(4-(4-amino-7-(2-hydroxy-2-methylpropyl)-7H-pyrrolo[2,3-d]pyrimidin-5-yl)-2-fluorophenyl)-3-(4-((4-methylpiperazin-1-yl)methyl)-3-(trifluoromethyl)phenyl)urea] | < 50 nM | < 100 nM |
| CN1CCN(Cc2ccc(NC(=O)Nc3ccc(-c4cn(C5CC5)c5ncnc(N)c45)cc3F)c(C(F)(F)F)c2)CC1 [Example I-16, 1-(4-(4-amino-7-cyclopropyl-7H-pyrrolo[2,3-d]pyrimidin-5-yl)-2-fluorophenyl)-3-(4-((4-methylpiperazin-1-yl)methyl)-2-(trifluoromethyl)phenyl)urea] | > 1000 nM | > 2000 nM |
| CN1CCN(Cc2ccc(NC(=O)Nc3ccc(-c4cn(C)c5ncnc(N)c45)cc3F)cc2C(F)(F)F)CC1 [Example I-18, 1-(4-(4-amino-7-methyl-7H-pyrrolo[2,3-d]pyrimidin-5-yl)-2-fluorophenyl)-3-(4-((4-methylpiperazin-1-yl)methyl)-3-(trifluoromethyl)phenyl)urea] | < 50 nM | < 100 nM |
| CN1CCN(Cc2ccc(NC(=O)Nc3ccc(-c4cn(C5CCN(C)C5)c5ncnc(N)c45)cc3F)cc2C(F)(F)F)CC1 (stereo not drawn) [Example I-20, 1-(4-(4-amino-7-(1-methylpyrrolidin-3-yl)-7H-pyrrolo[2,3-d]pyrimidin-5-yl)-2-fluorophenyl)-3-(4-((4-methylpiperazin-1-yl)methyl)-3-(trifluoromethyl)phenyl)urea] | < 50 nM | < 100 nM |
| CN1CCC(n2cc(-c3ccc(NC(=O)Nc4ccc(CN5CCN(C)CC5)c(C(F)(F)F)c4)c(F)c3)c3c(N)ncnc32)CC1 [Example I-21, 1-(4-(4-amino-7-(1-methylpiperidin-4-yl)-7H-pyrrolo[2,3-d]pyrimidin-5-yl)-2-fluorophenyl)-3-(4-((4-methylpiperazin-1-yl)methyl)-3-(trifluoromethyl)phenyl)urea] | > 1000 nM | < 100 nM |
| CC(C)n1nc(-c2ccc(NC(=O)Nc3ccc(CN4CCN(C)CC4)c(C(F)(F)F)c3)cc2)c2c(N)ncnc21 [Example I-24, 1-(4-(4-amino-1-isopropyl-1H-pyrazolo[3,4-d]pyrimidin-3-yl)phenyl)-3-(4-((4-methylpiperazin-1-yl)methyl)-3-(trifluoromethyl)phenyl)urea] | < 50 nM | < 100 nM |
| CN1CCN(Cc2ccc(NC(=O)Nc3ccc(-c4nn(C5CC5)c5ncnc(N)c45)cc3F)cc2C(F)(F)F)CC1 [Example I-28, 1-(4-(4-amino-1-cyclopropyl-1H-pyrazolo[3,4-d]pyrimidin-3-yl)-2-fluorophenyl)-3-(4-((4-methylpiperazin-1-yl)methyl)-3-(trifluoromethyl)phenyl)urea] | < 50 nM | < 100 nM |
| CN1CCN(Cc2ccc(NC(=O)Nc3ccc(-c4nn(CC(C)(C)O)c5ncnc(N)c45)cc3F)cc2C(F)(F)F)CC1 [Example I-29, 1-(4-(4-amino-1-(2-hydroxy-2-methylpropyl)-1H-pyrazolo[3,4-d]pyrimidin-3-yl)-2-fluorophenyl)-3-(4-((4-methylpiperazin-1-yl)methyl)-3-(trifluoromethyl)phenyl)urea] | < 50 nM | < 100 nM |
| CN1CCN(Cc2ccc(NC(=O)Nc3ccc(-c4nn(C5CC5)c5ccnc(N)c45)cc3F)cc2C(F)(F)F)CC1 [Example I-31, 1-(4-(4-amino-1-cyclopropyl-1H-pyrazolo[4,3-c]pyridin-3-yl)-2-fluorophenyl)-3-(4-((4-methylpiperazin-1-yl)methyl)-3-(trifluoromethyl)phenyl)urea] | < 50 nM | < 100 nM |
| Nc1ncnc2c1c(-c1ccc(NC(=O)Nc3ccc(CN4CCOCC4)c(C(F)(F)F)c3)c(F)c1)cn2C1CC1 [Example I-32, 1-(4-(4-amino-7-cyclopropyl-7H-pyrrolo[2,3-d]pyrimidin-5-yl)-2-fluorophenyl)-3-(4-(morpholinomethyl)-3-(trifluoromethyl)phenyl)urea] | 250 to 1000 nM | – |
| CN1CCN(Cc2ccc(NC(=O)Nc3ccc(-c4cn(C5CC5)c5ncnc(N)c45)cc3F)cc2C(F)(F)F)CC1 [Example I-34, 1-(4-(4-amino-7-cyclopropyl-7H-pyrrolo[2,3-d]pyrimidin-5-yl)-2-fluorophenyl)-3-(4-((4-methylpiperazin-1-yl)methyl)-3-(trifluoromethyl)phenyl)urea] | < 50 nM | < 100 nM |
| CN1CCN(Cc2ccc(NC(=O)Nc3ccc(-c4cn(C5CC5)c5ncnc(N)c45)cc3F)cc2C2CC2)CC1 [Example I-40, 1-(4-(4-amino-7-cyclopropyl-7H-pyrrolo[2,3-d]pyrimidin-5-yl)-2-fluorophenyl)-3-(3-cyclopropyl-4-((4-methylpiperazin-1-yl)methyl)phenyl)urea] | 250 to 1000 nM | 100 to 500 nM |
| CN1CCN(Cc2ccc(NC(=O)Nc3ccc(-c4nn(C5CC5)c5ccnc(N)c45)cn3)cc2C(F)(F)F)CC1 [Example I-51, 1-(5-(4-amino-1-cyclopropyl-1H-pyrazolo[4,3-c]pyridin-3-yl)pyridin-2-yl)-3-(4-((4-methylpiperazin-1-yl)methyl)-3-(trifluoromethyl)phenyl)urea] | 50 to 250 nM | – |
| CN1CCC(Oc2ncc(NC(=O)Nc3ccc(-c4cn(C5CC5)c5ncnc(N)c45)cc3F)cc2C(F)(F)F)CC1 [Example I-61, 1-(4-(4-amino-7-cyclopropyl-7H-pyrrolo[2,3-d]pyrimidin-5-yl)-2-fluorophenyl)-3-(6-((1-methylpiperidin-4-yl)oxy)-5-(trifluoromethyl)pyridin-3-yl)urea] | > 1000 nM | – |
| CN1CCN(Cc2ccc(NC(=O)Nc3ccc(-c4cn(CCC(=O)O)c5ncnc(N)c45)cc3F)cc2C(F)(F)F)CC1 [Example I-106, 3-(4-amino-5-(3-fluoro-4-(3-(4-((4-methylpiperazin-1-yl)methyl)-3-(trifluoromethyl)phenyl)ureido)phenyl)-7H-pyrrolo[2,3-d]pyrimidin-7-yl)propanoic acid] | – | < 100 nM |
